Experimental data published in patent publication EP0140492B1 (WARNER-LAMBERT COMPANY, priority 1983, dated 1985).

Legend:
[1] = water and alcohol; cited from earlier work
[2] = Plasma levels of isoxicam and bioavailability parameters after a single oral dose to beagle dogs; assay type: in vivo; settings: beagle, dog, in vivo, po; for Tmax: Tmax (hours)
Experimental: The range for the individual animals was 51.4 to 63.0 µg/ml with three animals having a peak time of two hours and the final animal at eight hours. These plasma levels were considerably higher when compared to micronized isoxicam. […] Peak plasma concentrations for individual animals ranged from […] between three and six hours postdose.
Areas under the plasma concentrations versus time curve (AUC^0-∞) were calculated using the trapezoidal rule and extrapolated to infinity with the appropriate elimination rate constants.

[3] = cited from earlier work

Q: Which results are given for `Cc1cc(NC(=O)C2=C(O)c3ccccc3S(=O)(=O)N2C)no1` [micronized isoxicam, 4 - hydroxy - 2 - methyl - N - (5 - methyl - 3 - isoxazolyl) - 2H - 1,2 - benzothiazine - 3 - carboxamide - 1,1 - dioxide, reference compound]?
A: solubility [1]: practically insoluble in water and alcohol; AUC ([2]; 100 mg, AUC^0-∞): 808 µg·h/mL; Cmax ([2]; 100 mg, Cmax (µg/ml)): 15400 ng/mL; half-life ([2]; 100 mg, Half-life (hours)): 35.5 h; Cmax ([2]; 100 mg, Mean Cmax): 15400 ± 4200 ng/mL; half-life ([2]; 100 mg, Mean half-lives (elimination, linear regression of semilogarithmic data)): 35.5 ± 7.1 h; Tmax ([2]; 100 mg): 4.2 h; AUC ([2]; 100 mg, mean AUC^0-∞): 808 ± 230 µg·h/mL; half-life ([2]; Half-life (hours)): 32.6 h; Tmax [2]: 6 h; pKa [3]: about 3.65
